From PMC10403511, “DNA-encoded chemical libraries yield non-covalent and non-peptidic SARS-CoV-2 main protease inhibitors” (Communications Chemistry, 2023)
“Also recorded” adds a separate entry of the source. Like-named read-outs stand apart in the source and are kept apart here.

Columns and labels:
SARS-CoV-2 M^pro = target: T1, SARS-CoV-2 M^pro (Severe acute respiratory syndrome coronavirus 2, UniProt P0DTD1); assay: M^pro enzyme inhibition assay, proteolytic cleavage of fluorescent peptide reporter, Ki by Morrison equation; format: biochemical; conditions: for decrease of activity compared to CDD-1733: from Ki values
T1 construct: the gene for M^pro (ORF1ab residues 3264 to 3569, GenBank code: MN908947.3); Sumo fusion with M^pro cleavage site (SAVLQ↓SGFRK) (N, cleaved yes); 6xHis-tag behind PreScission site (SGVTFQ↓GP) (C); made in house; host or cells: E. coli BL21(DE3)
Description: Hydrolysis of the fluorescent peptide was monitored at an emission wavelength of 460 nm with an excitation wavelength of 360 nm using a TECAN M200 plate reader. Initial hydrolysis rates of fluorescent peptide were plotted as a function of compound concentrations, and Ki values were obtained by fitting the data into the Morrison equation[32] with SE from triplicates.
inhibitors. […] The remaining activities (red dots) of Mpro towards fluorescent
peptide we re plotted as a function of compound concentrations and Ki values wa s calculated by fitting the da ta int o Morrison equation wit h standard error f romS6 […]

[1] = format: in vitro ADME, human; conditions: human, plasma, 2 h, 10 μM
Protocol: (§1) At time points of 0, 30, 60, and 120 min, 15 μL of the samples were taken out, and the reactions were terminated by adding 75 μL of ice-cold methanol. The reaction mixtures were then vortexed for 30 s and centrifuged at 15,000 rcf for 15 min. […] The percentage of test compound remaining at the individual time points was normalized by the 0-min.
(§2) 10 µM in duplicate (n=2) at 37 °C. The reactions were terminated at time points of 0, 30, 60 and 120 min by adding ice-cold methanol. Following centrifugation, the supernatant was analyzed using UHPLC-Q E xa ct ive Orbitrap MS. The percentage of test compound remaining at the individual time points relative to the 0 min sample was determined S12

cathepsin B = target: T2, cathepsin B (Homo sapiens, UniProt P07858); assay: Human protease off-target assay, commercial kit; format: biochemical; conditions: 10 µM compound
T2 construct: purchased BPS Bioscience 79590
Protocol: (§3) These assays were done exactly as we described earlier. In brief, commercial kits were used for all four human proteases as follows: Cathepsin B (BPS Bioscience, #79590), Renin (BPS Bioscience, #80211), Thrombin (Sigma-Aldrich, #MAK243), and MMP-1 (Biovision, #K794-100). All assays were run in kinetic mode and at RT, except MMP-1, which was run at 37 °C. Positive controls were used for all assays, i.e., E64 for Cathepsin B, Aliskiren for Renin, CDD-1472 for Thrombin, and GM 6001 for MMP-1. Activities were obtained from linear initial progress curves, and fractional activities were calculated from reactions with no inhibitors[17],[19],[34].
(§4) Supplementary Figure 4. Potential off-target inhibition of major proteases, i.e. thrombin (a serine protease), cathepsin B (a cysteine protease like Mpro), renin (an
(§5) control inhibitors as indicated. S9 […]

[2] = target: T3, matrix metallopeptidase-1 (MMP-1) (Homo sapiens, UniProt P03956); assay: Human protease off-target assay, commercial kit; format: biochemical; conditions: 10 µM compound, 37 °C
T3 construct: purchased Biovision K794-100
T3 sequence (P03956 100-469): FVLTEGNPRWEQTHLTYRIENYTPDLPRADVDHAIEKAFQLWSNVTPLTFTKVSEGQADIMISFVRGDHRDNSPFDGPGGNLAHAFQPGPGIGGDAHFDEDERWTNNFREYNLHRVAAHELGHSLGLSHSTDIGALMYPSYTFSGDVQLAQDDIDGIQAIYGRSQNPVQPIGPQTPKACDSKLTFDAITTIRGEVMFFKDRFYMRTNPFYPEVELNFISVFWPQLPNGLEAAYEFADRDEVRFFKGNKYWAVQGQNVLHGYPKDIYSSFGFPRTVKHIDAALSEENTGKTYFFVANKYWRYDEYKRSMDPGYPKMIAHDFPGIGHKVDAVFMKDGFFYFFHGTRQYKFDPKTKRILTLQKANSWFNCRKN
Protocol: as §3, §4, §5

renin = target: T4, renin (Homo sapiens, UniProt P00797); assay: Human protease off-target assay, commercial kit; format: biochemical; conditions: 11.1 µM compound
T4 construct: purchased BPS Bioscience 80211
T4 sequence (P00797 67-406): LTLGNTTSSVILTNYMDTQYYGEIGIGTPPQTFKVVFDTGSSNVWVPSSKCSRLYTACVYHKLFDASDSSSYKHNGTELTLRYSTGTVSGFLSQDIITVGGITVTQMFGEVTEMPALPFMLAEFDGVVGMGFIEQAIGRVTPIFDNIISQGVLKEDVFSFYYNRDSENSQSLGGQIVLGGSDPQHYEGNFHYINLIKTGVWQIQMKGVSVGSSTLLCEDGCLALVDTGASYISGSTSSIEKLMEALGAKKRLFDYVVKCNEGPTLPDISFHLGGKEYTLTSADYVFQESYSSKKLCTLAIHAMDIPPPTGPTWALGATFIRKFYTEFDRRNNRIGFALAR
Protocol: as §3, §4, §5

thrombin = target: T5, thrombin (Homo sapiens, UniProt P00734); assay: Human protease off-target assay, commercial kit; format: biochemical; conditions: 10 µM compound
T5 construct: purchased Sigma-Aldrich MAK243
Protocol: as §3, §4, §5

[3] = format: in vitro ADME, mouse; conditions: mouse, plasma, 2 h, 10 μM
Protocol: as §1, §2

in vivo = conditions: 50 mg/kg
Protocol: The whole blood samples were centrifuged at rcf 2000 for 5 min for the plasma separation of plasma. The plasma samples were stored at −80 °C before analysis. All the samples were analyzed with a Q Exactive orbitrap MS coupled with UHPLC (Thermo Fisher Scientific, San Jose, CA). LC-Q Exactive MS was operated in the same parameters used in the cell uptake assay above. The concentration of these compounds in plasma was quantified using individual calibration curves.
PK parameters such as half-time (T1/2), area under the plasma concentration–time curve during the period of observation (AUC0–t), area under the plasma concentration–time curve from zero to infinity (AUC0–∞), clearance normalized by the bioavailability (CL/F), and the mean residence time (MRT) were calculated by WinNonlin software (Certara, Princeton, NJ) by noncompartmental analysis. The plasma concentration–time curves were plotted in Prism 7 (GraphPad, San Diego, CA) as mean ± S.D.
Mouse PK of CDD compounds, 50 mg/kg
samples we re collected at 0, 5, 10, 15, 30 m in , 1, 2, 4, 6 and 8 h af ter dosing. P la sm a samples we re separated, prepared and analyzed wit h LC-MS. The compound
± SD (n=4). Tmax, time to rea ch the m a ximum pla sma concentration. Cm ax, maximum p las m a concentration. T1/2, half-lif e . AUC, area under the cu rve . CL, clea ran ce . F,
bioavailability. M R T, mean residence time.

in vitro = conditions: human
HepG2 cells [4] = system: HepG2 cells
HepG2 cells [5] = assay: cells; conditions: Homo sapiens, HepG2, 24 h, read-out: IC50 (HepG2 cell viability)
[6] = 25 nM Mpro with authentic termini (no His-tag), standard error from triplicates, Inactive: less than 50% inhibition with 25 µM compound, read-out: Mpro Ki
[7] = Fig. 2, Suppl. Fig. 1, construct not given, Inactive: inhibited M^pro activity by less than 90% with 25 μM, read-out: Ki
[8] = 25 nM Mpro with authentic termini (no His-tag), standard error from triplicates, Inactive: less than 50% inhibition with 25 µM compound
[9] = 25 nM Mpro-6-His, standard error from triplicates, Inactive: less than 50% inhibition with 25 µM compound in initial screening
[10] = Fig. 2, Suppl. Fig. 1, construct not given, Inactive: inhibited M^pro activity by less than 90% with 25 μM

CCC[C@H](NC(=O)c1cccc2nc(-c3cncc4ccccc34)n([C@H]3C[C@H](C(=O)NC)C3)c12)c1ccc(OC(F)F)cc1 [CDD-1780]
Ki (SARS-CoV-2 M^pro; [6]): 16 ± 2 nM
Ki (SARS-CoV-2 M^pro; [7]): 14 nM

CCC[C@H](NC(=O)c1cccc2nc(-c3cncc4ccccc34)n([C@H]3CC[C@H](C(=O)NC)C3)c12)c1ccc(C(F)(F)F)cc1 [CDD-1790]
Ki (SARS-CoV-2 M^pro; read-out: Ki): 620 nM
Ki (SARS-CoV-2 M^pro; read-out: Mpro Ki): 664 ± 66 nM

CCC[C@H](NC(=O)c1cccc2nc(-c3cncc4ccccc34)n([C@H]3C[C@H](C(=O)NC)C3)c12)c1cccc(C(F)(F)F)c1 [CDD-1795]
Ki (SARS-CoV-2 M^pro; [6]): 35 ± 5 nM
Ki (SARS-CoV-2 M^pro; [7]): 29 nM
decrease of activity compared to CDD-1733 (SARS-CoV-2 M^pro): approximately 2 fold

CCC[C@H](NC(=O)c1cccc2nc(-c3cncc4ccccc34)n(C(C)C)c12)c1ccc(C(F)(F)F)cc1 [CDD-1804]
Mpro Ki (SARS-CoV-2 M^pro; [8]): Inactive
Mpro-His Ki (SARS-CoV-2 M^pro; [9]): Inactive
Ki (SARS-CoV-2 M^pro; [10]): completely abolished; also recorded: greatly reduces potency

CCC[C@H](NC(=O)c1cccc2nc(-c3cncc4ccccc34)n(C3CCC3)c12)c1ccc(C(F)(F)F)cc1 [CDD-1806]
Ki (SARS-CoV-2 M^pro; [10]): greatly reduces potency
decrease of activity compared to CDD-1733 (SARS-CoV-2 M^pro): more than 14 fold

CCC[C@H](NC(=O)c1cccc2nc(-c3cncc4ccccc34)n(C3CCNCC3)c12)c1ccc(C(F)(F)F)cc1 [CDD-1818]
Ki (SARS-CoV-2 M^pro; read-out: Ki): 1470 nM
Ki (SARS-CoV-2 M^pro; read-out: Mpro Ki): 1710 ± 128 nM

CNC(=O)[C@H]1C[C@H](n2c(-c3cncc4ccccc34)nc3cccc(C(=O)N[C@@H](C)c4ccc5ccccc5c4)c32)C1 [CDD-1819]
compound remaining in plasma [1]: 80%
inhibition of enzymatic activity (cathepsin B): None of these inhibitors blocked the enzymatic activity
inhibition of enzymatic activity [2]: None of these inhibitors blocked the enzymatic activity
inhibition of enzymatic activity (renin): None of these inhibitors blocked the enzymatic activity
inhibition of enzymatic activity (thrombin): None of these inhibitors blocked the enzymatic activity
compound remaining in plasma [3]: 80%
MRT inf (in vivo; male, mouse, in vivo, po): 1.42 ± 0.16 h
MRT last (in vivo; male, mouse, in vivo, po): 1.31 ± 0.12 h
Tmax (in vivo; male, mouse, in vivo, po): 0.33 ± 0.14 h
half-life (in vivo; male, mouse, plasma, oral): 1.2 ± 0.1 h
CL/F (in vivo; mice, per oral gavage (po.), n=4, mean ± SD): 7.26 ± 1.81 mg/ ( hr*µmol/L)/kg
viability at 24 h, 100 µM (in vitro): > 80%
cytotoxicity (HepG2 cells [4]): no obvious cytotoxicity
IC50 (HepG2 cells [5]): > 100000 nM

CNC(=O)[C@H]1C[C@H](n2c(-c3cncc4ccccc34)nc3cccc(C(=O)N[C@@H](C)c4ccc(C(F)(F)F)cc4)c32)C1 [CDD-1829]
Ki (SARS-CoV-2 M^pro; [6]): 48 ± 5 nM
Ki (SARS-CoV-2 M^pro; [7]): 46 nM

CCC[C@H](NC(=O)c1cccc2nc(-c3cncc4ccccc34)n(CCCC(=O)NC)c12)c1ccc(C(F)(F)F)cc1 [CDD-1830]
Ki (SARS-CoV-2 M^pro; [6]): 6 ± 1 nM
Ki (SARS-CoV-2 M^pro; 25 nM Mpro-6-His, standard error from triplicates, Inactive: less than 50% inhibition with 25 µM compound in initial screening, read-out: Mpro-His Ki): 6 ± 1 nM
Ki (SARS-CoV-2 M^pro; [7]): 6 nM

CCC[C@H](NC(=O)c1cccc2nc(-c3cccnc3)n([C@H]3C[C@H](C(=O)NC)C3)c12)c1ccc(C(F)(F)F)cc1 [CDD-1831]
Mpro Ki (SARS-CoV-2 M^pro; [8]): Inactive
Mpro-His Ki (SARS-CoV-2 M^pro; [9]): Inactive
Ki (SARS-CoV-2 M^pro; [10]): total loss of activity; also recorded: inactive or exhibit greatly decreased potency

CNC(=O)[C@H]1C[C@H](n2c(-c3cncc4ccccc34)nc3cccc(C(=O)N[C@@H](C)c4ccccc4)c32)C1 [CDD-1841]
Ki (SARS-CoV-2 M^pro; read-out: Ki): 571 nM
Ki (SARS-CoV-2 M^pro; read-out: Mpro Ki): 565 ± 55 nM

CNC(=O)[C@H]1C[C@H](n2c(-c3cncc4ccccc34)nc3cccc(C(=O)NC(C)C)c32)C1 [CDD-1842]
Mpro Ki (SARS-CoV-2 M^pro; [8]): Inactive
Mpro-His Ki (SARS-CoV-2 M^pro; [9]): Inactive
Ki (SARS-CoV-2 M^pro; [10]): completely inactive

CCC[C@H](NC(=O)c1cccc2nc(-c3cncc4ccccc34)n([C@H]3C[C@H](C(=O)NC)C3)c12)c1ccccc1 [CDD-1843]
Mpro Ki (SARS-CoV-2 M^pro): Inactive
Mpro-His Ki (SARS-CoV-2 M^pro): Inactive

CNC(=O)CCCn1c(-c2ccc3cnccc3c2)nc2cccc(C(=O)N[C@@H](C)c3ccc4ccccc4c3)c21 [CDD-1884]
Ki (SARS-CoV-2 M^pro): inactive or exhibit greatly decreased potency
Mpro Ki (SARS-CoV-2 M^pro): Inactive
Mpro-His Ki (SARS-CoV-2 M^pro): Inactive

CNC(=O)CCCn1c(-c2cccc3ccccc23)nc2cccc(C(=O)N[C@@H](C)c3ccc4ccccc4c3)c21 [CDD-1885]
Mpro Ki (SARS-CoV-2 M^pro): Inactive
Mpro-His Ki (SARS-CoV-2 M^pro): Inactive

CNC(=O)CCCn1c(-c2ccnc3ccccc23)nc2cccc(C(=O)N[C@@H](C)c3ccc4ccccc4c3)c21 [CDD-1906]
Mpro Ki (SARS-CoV-2 M^pro): Inactive
Mpro-His Ki (SARS-CoV-2 M^pro): Inactive

CNC(=O)CCCn1c(-c2cnccc2C)nc2cccc(C(=O)N[C@@H](C)c3ccc4ccccc4c3)c21 [CDD-1924]
Ki (SARS-CoV-2 M^pro; read-out: Mpro Ki): 426 ± 47 nM

CNC(=O)CCCn1c(-c2cncc3ccccc23)nc2cccc(C(=O)NCc3ccc4ccccc4c3)c21 [CDD-1925]
Ki (SARS-CoV-2 M^pro; read-out: Ki): 51 nM
Ki (SARS-CoV-2 M^pro; read-out: Mpro Ki): 42 ± 5 nM

CNC(=O)CCCn1c(-c2ccc(N)nc2)nc2cccc(C(=O)N[C@@H](C)c3ccc4ccccc4c3)c21 [CDD-1926]
Ki (SARS-CoV-2 M^pro): inactive or exhibit greatly decreased potency
Mpro Ki (SARS-CoV-2 M^pro): Inactive
Mpro-His Ki (SARS-CoV-2 M^pro): Inactive
